Measured values published in US20220251071A1, “METHOD TO MAKE SMALL-MOLECULE MURINE DOUBLE MINUTE 2 PROTEIN (MDM2)-DEGRADING COMPOUNDS, COMPOUNDS FORMED THEREBY, AND PHARMACEUTICAL COMPOSITIONS CONTAINING THEM” (Wisconsin Alumni Research Foundation, priority 2019, published 2022).

Key:
[1] = test system: RS4;11 cells; assay: MTT cell viability (anti-proliferation) assay; type: cell-based, human; details: for IC50: Homo sapiens, RS4-11, MTT assay, 48 h incubation, read-out: IC50, inhibition of growth/proliferation of RS4;11 cells; for anti-proliferation effect, rank in screen / anti-proliferation potency relative to parent MDM2 inhibitor: RS4;11 cells; for anti-proliferation effect, rank in screen: compounds tested at 100 nM; for anti-proliferation potency relative to parent MDM2 inhibitor: 20 vs 1, 32 vs (4S, 5R)-1
Description: The “MTT assay” is a colorimetric assay for assessing cellular metabolic activity. NAD(P)H-dependent cellular oxidoreductase enzymes reflect the number of viable cells present. These enzymes are capable of reducing the tetrazolium dye 3-(4,5-dimethylthiazol-2-yl)-2,5-diphenyltetrazolium bromide (“MTT”) to its insoluble formazan, which has a purple color and whose concentration is then measured spectrophotometrically. The MTT assay is conventional and well known. See, for example, Stockert et al. (2018) “Tetrazolium salts and formazan products in Cell Biology: Viability assessment, fluorescence imaging, and labeling perspectives,” Acta Histochemica 120: 159-167. As used herein, “MTT assay” refers broadly to the MTT assay itself and to the well-known variations of it that use structurally related tetrazolium salts (e.g., XTT, MTS, etc.).
(§1) The human acute leukemia RS4;11 cell line was purchased from American Type Culture Collection (ATCC Accession No. CRL-1873), and cultured in RPMI-1640 media (Corning Incorporated (USA), One Riverfront Plaza, Corning, N.Y. 14831) supplemented with 10% fetal bovine serum (FBS), 1% sodium pyruvate, 1% penicillin/streptomycin, and 10 mM HEPES at 37° C. under a humidified 5% CO2 atmosphere. The experiments were performed by using cells with 8-20 passages after purchasing.
Cells were seeded in a 96-well cell culture plate at a density of 2×10^4 cells with 90 μL cell culture media overnight. The cells were then treated with the indicated dose of compounds, respectively, and incubated at 37° C. under a humidified 5% CO2 atmosphere for 48 h. After the incubation, the cells were treated with 10 μL of MTT solution (5 mg/mL) and incubated with another 4 h, followed by the addition of 100 μL of solubilizing solution. The plate was placed on the shaker for overnight at room temperature until the formazan were entirely dissolved. The plate was scanned at 570 nm and 690 nm. The absorbance was normalized to the DMSO-treated cells, and the IC50 was calculated by non-linear regression analysis using GraphPad Prism 6 software.

[2] = biological target: T1, MDM2 (Homo sapiens, UniProt Q00987); assay: Western blot of MDM2 degradation and downstream proteins; type: cell-based; details: for MDM2 degradation at 100 nM, 20 compared with 32: identical conditions; for MDM2 degradation (Western blot): RS4;11 leukemia cells, data not shown
T1 construct: endogenous in cells; host or cells: RS4;11 (ATCC CRL-1873)
Description: as §1
Cells were treated with the indicated concentrations of compounds under the indicated time. Cells were collected and lysed with RIPA buffer (Corning) after being washed with cold PBS twice. The supernatant was collected after centrifugation at 16,000×g at 4° C. for 15 min. The protein concentration was measured with BCA (bicinchoninic acid) method. (Smith, P. K., et al. (1985) “Measurement of protein using bicinchoninic acid,” Anal. Biochem. 150(1):76-85.) The protein expressed in the whole cell lysates was identified by Western Blot. A quantity of 40 μg protein per sample was loaded and then separated by SDS-PAGE. Proteins in the gel was transferred to polyvinylidene fluoride (PVDF) membranes, then blocked with 5% non-fat milk, and probed with the primary antibodies at 4° C. overnight. The primary antibodies are as following: MDM2 (D1V2Z) (1:1000), p53 (DO-7) (1:1000), PARP (46D11) (1:1000), Caspase-3 (1:1000), and p21 Waf1/Cip 1(12D1) (1:1000), all of which were purchased from Cell Signaling Technology, Inc., 3 Trask Lane, Danvers, Mass. 01923, along with a-Tubulin (1:1000) and β-Actin (1:1000), which were purchased from R&D Systems, Inc., 614 McKinley Place NE, Minneapolis, Minn. 55413. The membrane was washed with TBS-T 3 times, and incubated with HRP-linked secondary antibodies for 1 h at room temperature, followed by washing with TBS-T. The membrane was incubated with ECL (Bio-rad) for 5 min. The protein band was visualized by using a Bio-Rad Chemi-Doc MP imaging system. The intensity of the band was measured by Image J software.

[3] = test system: p53 transcriptional activity (MDM2, TP53, CDKN1A mRNA); assay: qRT-PCR of mRNA levels of p53 target genes; type: cell-based, human; details: RS4;11 cells, 6 h; for transcription of p53 targeted genes MDM2 and CDKN1A (p21): (4S,5R)-1 at 1 PM as printed, 32 at 100 nM
Description: Total RNA was extracted using GeneJET RNA Purification Kit (Thermo Scientific) and titrated by SYNERGY H1 Hybrid Multi-Mode Reader (BioTek) at 260 nm. 1 μg of total RNA was subjected to reverse transcription using High-Capacity cDNA Reverse Transcription Kit (appliedbiosystems). Quantitative RT-PCR was performed using PowerUp™ SYBR™ Green Master Mix (appliedbiosystems) and the amplification detected in a QuantStudio 7 Flex Real-Time PCR System (ThermoFisher Applied Biosystems).

[4] = test system: RS4;11 cells; assay: Flow cytometry apoptosis, Annexin V / PI staining; type: cell-based, human; details: 24 h, 100 nM or 1 μM
Description: Cells were seeded in a 6 cm circular cell culture dish at a density of 5×10^6 cells. After being settled overnight, the cells were treated with the indicated concentrations of compounds for 24 h. The collected cells were double stained with FITC Annexin V and PI according to the manufacturer's protocols. The apoptosis was analyzed using a FITC Annexin V apoptosis detection kit (556547, BD Biosciences, 2350 Qume Drive, San Jose, Calif. 95131).

[5] = test system: p53; details: xenograft tumor tissues; cited from earlier work

T1 sequence (Q00987 whole entry): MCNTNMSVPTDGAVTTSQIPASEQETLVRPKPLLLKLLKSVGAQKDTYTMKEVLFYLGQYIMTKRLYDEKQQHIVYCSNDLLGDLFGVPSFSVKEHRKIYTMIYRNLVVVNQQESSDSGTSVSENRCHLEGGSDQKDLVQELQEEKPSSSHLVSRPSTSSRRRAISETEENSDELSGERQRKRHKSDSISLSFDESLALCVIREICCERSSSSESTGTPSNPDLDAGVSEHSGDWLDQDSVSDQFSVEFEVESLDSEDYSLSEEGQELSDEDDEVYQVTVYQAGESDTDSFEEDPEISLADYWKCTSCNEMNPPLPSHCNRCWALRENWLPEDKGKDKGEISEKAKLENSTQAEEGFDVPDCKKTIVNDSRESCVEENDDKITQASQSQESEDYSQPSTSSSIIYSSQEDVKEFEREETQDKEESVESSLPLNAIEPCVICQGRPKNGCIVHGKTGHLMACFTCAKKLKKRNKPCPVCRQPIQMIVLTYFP

| IC50 [1] [nM] | MDM2 degradation (Western blot) [2] | Structure (SMILES) | anti-proliferation effect, rank in screen [1] | anti-proliferation potency relative to parent MDM2 inhibitor [1] | MDM2 degradation at 100 nM, 20 compared with 32 ([2]; RS4;11 cells) | effect on TP53 mRNA [3] | transcription of p53 targeted genes MDM2 and CDKN1A (p21) [3] | further results |
| --- | --- | --- | --- | --- | --- | --- | --- | --- |
| 7.2 | degrade significant amounts of MDM2 | CCOc1cc(C(C)(C)C)ccc1C1=NC(c2ccc(Cl)cc2)C(c2ccc(Cl)cc2)N1C(=O)N1CCN(CC#Cc2cccc3c2CN(C2CCC(=O)NC2=O)C3=O)CC1 (racemic) [Compound 20, 3-(4-(3-(4-(2-(4-(tert-butyl)-2-ethoxyphenyl)-4,5-bis(4-chlorophenyl)-4,5-dihydro-1H-imidazole-1-carbonyl)piperazin-1-yl)prop-1-yn-1-yl)-1-oxoisoindolin-2-yl)piperidine-2,6-dione] | most potent inhibitor of RS4;11 | ~1,000 fold | significant degradation of MDM2 was observed | – | – | – |
| 3.2 | degrade significant amounts of MDM2 | CCOc1cc(C(C)(C)C)ccc1C1=N[C@@H](c2ccc(Cl)cc2)[C@@H](c2ccc(Cl)cc2)N1C(=O)N1CCN(CC#Cc2cccc3c2CN(C2CCC(=O)NC2=O)C3=O)CC1 (stereo partly drawn) [Compound 32, 3-(4-(3-(4-((4S,5R)-2-(4-(tert-butyl)-2-ethoxyphenyl)-4,5-bis(4-chlorophenyl)-4,5-dihydro-1H-imidazole-1-carbonyl)piperazin-1-yl)prop-1-yn-1-yl)-1-oxoisoindolin-2-yl)piperidine-2,6-dione] | most potent compound as compared to 33 and 34 | ~1,000 fold | superior | Neither MDM2 ligand (4S, 5R)-1 nor degrader 32 has any effect on TP53 | more significant transcriptional upregulation | MDM2 degradation on co-treatment with MDM2 ligand (4S, 5R)-1 or CRBN ligand lenalidomide ([2]; 32 at 100 nM, competitor 5 μM): significantly reduced; reversibility of MDM2 downregulation after washout ([2]; 12 h treatment, then fresh medium): reversible; MDM2 degradation on co-incubation with proteasome inhibitor MG132 ([2]; MG132 5 PM as printed): the degradation of MDM2 ceased; MDM2 and p53 protein levels ([2]; RS4;11 cells, 100 nM or 1 μM): MDM2 depleted and p53 was stabilized and upregulated; cleavage of PARP and Caspase-3 ([2]; RS4;11 cells, 100 nM or 1 μM): cleaved PARP and Caspase-3 were observed; p21 protein level ([2]; RS4;11 cells, 100 nM or 1 μM): increased level of p21; Dmax at 0.1 µM ([2]; RS4;11 cells, 24 h, observed at 100 nM, read-out: maximal level of MDM2 degradation (Dmax)): 90%; DC50 ([2]; RS4;11 cells, 24 h incubation, read-out: concentration at which 50% MDM2 degradation was detected (DC50)): 23 nM; time after washout without return of MDM2 to pre-treatment levels ([2]; RS4;11 cells, after removal of degrader): > 48 h; time at which MDM2 degradation was first observed ([2]; RS4;11 cells, time course): 1 h; time at which cleaved PARP was observed ([2]; RS4;11 cells, time course): 6 h; apoptosis induction, Annexin V-positive cells [4]: A large number of cells were identified in Annexin V-positive quadrants |
| – | degrade significant amounts of MDM2 | CCOc1cc(C(C)(C)C)ccc1C1=NC(c2ccc(Cl)cc2)C(c2ccc(Cl)cc2)N1C(=O)N1CCN(C(=O)CCC#Cc2cccc3c2CN(C2CCC(=O)NC2=O)C3=O)CC1 (centres unmarked) [Compound 7, 3-(4-(5-(4-(2-(4-(tert-butyl)-2-ethoxyphenyl)-4,5-bis(4-chlorophenyl)-4,5-dihydro-1H-imidazole-1-carbonyl)piperazin-1-yl)-5-oxopent-1-yn-1-yl)-1-oxoisoindolin-2-yl)piperidine-2,6-dione] | – | – | – | – | – | – |
| – | degrade significant amounts of MDM2 | C=C1NC(=O)CCC1N1Cc2c(C#CCCCC(=O)NCC(=O)N3CCN(C(=O)N4C(c5ccc(C(C)(C)C)cc5OCC)=NC(c5ccc(Cl)cc5)C4c4ccc(Cl)cc4)CC3)cccc2C1=O (centres unmarked) [Compound 15, N-(2-(4-(2-(4-(tert-butyl)-2-ethoxyphenyl)-4,5-bis(4-chlorophenyl)-4,5-dihydro-1H-imidazole-1-carbonyl)piperazin-1-yl)-2-oxoethyl)-6-(2-(2-methylene-6-oxopiperidin-3-yl)-1-oxoisoindolin-4-yl)hex-5-ynamide] | – | – | – | – | – | – |
| – | – | CC(C)(C)C[C@@H]1N[C@@H](C(=O)N[C@H]2CC[C@H](O)CC2)[C@H](c2cccc(Cl)c2F)[C@]12C(=O)Nc1cc(Cl)ccc12 [SAR405838] | – | – | – | – | – | duration of p53 accumulation after a single dose [5]: only induced a few hours of p53 accumulation |
| – | – | CCOc1cc(C(C)(C)C)ccc1C1=N[C@@H](c2ccc(Cl)cc2)[C@@H](c2ccc(Cl)cc2)N1C(=O)N1CCNCC1 [(4S, 5R)-1, ((4S,5R)-2-(4-(tert-butyl)-2-ethoxyphenyl)-4,5-bis(4-chlorophenyl)-4,5-dihydro-1H-imidazol-1-yl)(piperazin-1-yl)methanone] | – | – | – | Neither MDM2 ligand (4S, 5R)-1 nor degrader 32 has any effect on TP53 | upregulated | – |
